# Experimental data from publication PMC2897767, “Two Distinct Mechanisms for Actin Capping Protein Regulation—Steric and Allosteric Inhibition” (PLoS Biology, 2010).
# Entries after “also recorded” stand apart in the source; their conditions may differ. Where no end group is shown, it is not given here.
# Legend:
# [1] = test system: CPfull (wild type CP); test: Actin polymerization assay (barbed end elongation from spectrin-actin seeds): inhibition of CP capping; type: biochemical, chicken; details: actin 1.2 µM (5% pyrene-labeled); for inhibition of barbed end capping by CARMIL peptides: 3.6 nM CPfull, various peptide concentrations, 25°C (Figure 9D); for inhibition of CP capping activity by V-1 proteins: 3 nM wild type CP, various concentrations of V-1, 25°C (Figure S2)
# Experimental: (A) Superposition of the C-termini of the peptides. CD Phe505 and CK Arg169 are shown as stick models. The conserved proline at the C-terminus of the motifs is shown as balls. (B) CD2AP constructs used for biochemical assays. (C) CARMIL constructs used for biochemical assays. […] Actin (1.2 µM, 5% pyrene-labeled) was polymerized from spectrin-actin seeds in the presence of 3.6 nM CPfull (D), 10 nM CPβΔC (E), or 7.2 nM CPfull (F) with various concentrations of CARMIL peptides or GST-CA constructs.
# The barbed end elongation assay from spectrin-actin seeds was performed essentially as previously described. Briefly, G-actin was stored in G-buffer (0.2 mM CaCl2, 0.2 mM ATP, 0.5 mM DTT and 10 mM imidazole, pH 7.0). At 90 s prior to polymerization, the Ca^2+ was replaced with Mg^2+, by the addition of 1/10 volume of 10 mM EGTA and 1 mM MgCl2 to G-actin. […] Actin polymerization was measured by monitoring the pyrene-actin fluorescence (excitation 370 nm; emission 410 nm) at 25°C.
# (0.16 MB TIF) Click here for additional data file.
# [2] = test system: CP wt / GST-V-1 interaction; test: SPR assay of the effect of CARMIL peptides on CP/V-1 binding; set-up: species or system chicken CP, human V-1
# Experimental: GST-V-1 was immobilized on a sensor chip.
# (§1) GST-fusion proteins (GST-V-1, GST-CA, or GST-CD) were immobilized onto a CM5 sensor chip up to 200 RU (response units; 200 pg/mm^2) via anti-GST antibodies. […] Response curves were obtained by subtracting the background signal generated simultaneously on a control flow cell with immobilized GST. […] Kinetic parameters were determined by fitting the sensorgrams to a simple 1∶1 binding model, using the Bia-evaluation software (GE Healthcare). KD values were obtained from the kinetic rate constants.
# [3] = test system: CP; test: SPR competition with immobilized GST-CA92 for CP binding; set-up: species or system chicken; details: 50 nM wild type CP pre-mixed with various concentrations of peptide (Figure S7)
# Experimental: as §1
# (0.25 MB TIF) Click here for additional data file.
# [4] = test system: CP; test: SPR binding of CP to immobilized GST-CD2AP / GST-CARMIL fragments; set-up: species or system chicken; details: 20°C; for koff / kon: SPR (Biacore), CP perfused, 1:1 binding model; for koff: GST-fusion immobilized; for kon: GST-fusion immobilized via anti-GST antibody on CM5 chip, 50 mM KCl, 1 mM MgCl2, 0.005% Tween-20, 10 mM imidazole pH 7.0
# Experimental: Expression vectors for chicken CPfull and CPΔβC were constructed in pETDuet-1 by PCR, using pET-3d/CP [38] as the template. CP was expressed in E. coli Rosetta2 (DE3) and was purified as described. V-1 (human), expressed in E. coli Rosetta2 (DE3) as a GST-fusion protein, was affinity-purified and the tag was removed. Synthetic peptides derived from CARMIL proteins were obtained from Invitrogen. For crystallization, CP was incubated with a 1.2–2.0-fold molar excess of V-1 or CARMIL peptides at 4°C for 2 h, followed by gel filtration to purify the complexes. Expression vectors for the GST-CA constructs were prepared from the mouse cDNA clone as previously described. Vectors for GST-CD fragments were constructed by PCR cloning using a human whole brain cDNA library (Clontech) as the template. Amplified DNA fragments were cloned into pGEX-6P-1. GST-fusion proteins were expressed in E. coli Rosetta2 (DE3) cells and affinity-purified using glutathione sepharose resin. Mutations were introduced using a Quikchange mutagenesis kit (Stratagene). Actin was prepared from rabbit skeletal muscle, as previously described, and was further purified by gel filtration chromatography. Pyrene labeled-actin was prepared as described. Spectrin-actin seeds were prepared from rabbit red blood cells, as previously described.
# (§2) The binding affinities of CP for V-1 or CARMIL proteins were evaluated by surface plasmon resonance measurements with Biacore 3000 or Biacore 2000 instruments (GE Healthcare). GST-fusion proteins (GST-V-1, GST-CA, or GST-CD) were immobilized onto a CM5 sensor chip up to 200 RU (response units; 200 pg/mm^2) via anti-GST antibodies. CP at various concentrations in running buffer (50 mM KCl, 1 mM MgCl2, 0.005% Tween-20, 10 mM imidazole, pH 7.0) was perfused over the chip at 20°C, at a flow rate of 20 µl/min. Response curves were obtained by subtracting the background signal generated simultaneously on a control flow cell with immobilized GST. To measure the effect of the CARMIL peptides on the facilitation of CP/V-1 dissociation (in Figure 11C and 11D), we used the “co-inject” mode for successive injections of the peptides followed by CP. Kinetic parameters were determined by fitting the sensorgrams to a simple 1∶1 binding model, using the Bia-evaluation software (GE Healthcare). KD values were obtained from the kinetic rate constants. […] KD values were evaluated by plotting these values against the concentrations of CP.
# [5] = molecular target: CPfull (CP wt); test: SPR binding of CP to immobilized V-1; set-up: species or system chicken; details: V-1 mutant immobilized, analyte CP wt, equilibrium KD from Michaelis-Menten plots at saturated binding, not detectable = no binding at highest concentrations tested (≥ 50 µM)
# Experimental: as §2
# ^a Kinetic parameters were determined by fitting of the sensorgrams to a 1:1 binding model. KD = koff / kon .
# ^b Kinetic parameters were not determined for mutant proteins, due to the fast dissociation of the complex (koff > 0.1 s^-1). […]
substance,measurement,setting,value
"CD23: synthetic peptide, human CD2AP residues 485–507 (CP-binding motif) (NLLHLTANRPKMPGRRLPGRFNG; UniProt Q9Y5K6 485-507, looked up, fragment)",inhibition of barbed end capping by CARMIL peptides,[1],moderately inhibited
same,facilitation of dissociation of CP from immobilized GST-V-1,"[2]; 45 nM CP wt perfused first, then 100 nM peptide, versus buffer control (Figure 11C)",CP dissociated from V-1 quite rapidly
same,inhibition of CP/V-1 complex formation,"[2]; GST-V-1 immobilized, 100 nM peptide premixed with 45 nM CP wt (Figure 11A)",strongly inhibited
same,competition with immobilized GST-CA92 for CP binding,[3],effectively compete
"CD30: peptide with 7 extra residues at the C-terminus of CD23 (NLLHLTANRPKMPGRRLPGRFNGGHSPTHS; UniProt Q9Y5K6 485-514, looked up, fragment)",inhibition of barbed end capping by CARMIL peptides,[1],higher CP inhibition activity than CD23
"GST-CA55: GST fusion of mouse CARMIL residues 962–1016 (FPSVRQEKRSSGLISELPSEEGRRLEHFTKLRPKRNKKQQPTQAAVCTISILPQD; also: GST fusion, end not given here)",koff,[4]; pH 7.0,>0.1 s⁻¹
same,KD (in words),"[4]; SPR, pH 7.0",micromolar range
"GST-CD43: GST fusion of human CD2AP residues 461–503 (FDSLTVRTSKETDVVNFDDIASSENLLHLTANRPKMPGRRLPG; also: GST fusion, end not given here)",koff,[4]; pH 7.0,>0.1 s⁻¹
"GST-CD44: GST fusion of human CD2AP residues 461–504 (FDSLTVRTSKETDVVNFDDIASSENLLHLTANRPKMPGRRLPGR; also: GST fusion, end not given here)",kon,[4],540000 M⁻¹ s⁻¹
same,koff,[4]; pH 7.0,0.033 s⁻¹
"GST-CD47: GST fusion of human CD2AP residues 461–507 (FDSLTVRTSKETDVVNFDDIASSENLLHLTANRPKMPGRRLPGRFNG; also: GST fusion, end not given here)",kon,[4],1.6e+06 M⁻¹ s⁻¹
same,koff,[4]; pH 7.0,0.029 s⁻¹
V-1 D44R: V-1 point mutant Asp44 to Arg,inhibition of CP capping activity by V-1 proteins,[1],little inhibitory effect; also recorded: minimal effects on CP capping
same,KD,[5],not detectable ^c
V-1 E78R: V-1 point mutant Glu78 to Arg,inhibition of CP capping activity by V-1 proteins,[1],little inhibitory effect; also recorded: minimal effects on CP capping
same,Kd,[5],21 µM
V-1 W8A: V-1 point mutant Trp8 to Ala,inhibition of CP capping activity by V-1 proteins,[1],little inhibitory effect; also recorded: minimal effects on CP capping
